Bounds are passed on as bounds.

In one assay the test system is IL-6 (THP-1 cells). Nature of the assay: IL-6 inhibition in LPS-stimulated THP-1 cells (HTRF). The format is cell-based. The conditions noted are these: Homo sapiens; for EC50: THP-1 cells, LPS 500 ng/mL, 22 hours, IL6 HTRF; for inhibition at 10 µM: given where EC50 >10 μM, THP-1, IL6, read-out: percent inhibition at 10 μM. A digest of the protocol:
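THP-1 cells, pre-cultured 24 h in 1% FBS, were preincubated 2 h with compound over a 10-point 1:3 series from 10 μM (0.1% DMSO). They were then stimulated with 500 ng/mL LPS for 22 h at 37° C. IL-6 was read by HTRF 665/620 nm ratio, and EC50 was fitted by four-parameter regression against DMSO; above 10 μM, % inhibition at 10 μM is given.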
On the technique in general: In TR-FRET formats the signal depends on donor and acceptor labels being close together.

Assay [1] relates to primary human mesenchymal stem cells (hMSCs). As to the kind of experiment: Chondrogenesis induction in mesenchymal stem cells (nodule count). In kind it is cell-based. The following applies: 144 h, 6 days; for EC50: concentration required to induce 50% levels of chondrogenesis vs TGF-β3, read-out: Conc (nM) of 50% TGF-β3 activity; for Emax: relative to TGF-β3 (10 ng/mL) positive control, read-out: Max. Activity as % TGF-β3 activity. The procedure: Representative compounds were screened using primary human mesenchymal stem cells (hMSCs) to determine their ability to induce chondrogenesis (process by which cartilage is developed).
Human Mesenchymal Stem Cell Culture: Primary human mesenchymal stem cells (hMSCs) were purchased from Lonza (Walkersville, Md.) and expanded in Mesenchymal Stem Cell Growth Media (Lonza). Cells between passage 3 and 6 were used for the experiments.
Compound Screening: Each compound was dissolved in DMSO as a 10 mM stock and used to prepare compound source plates. Serial dilution (1:3, 6-point dose-response curves from 2700 nM to 10 nM) and compound transfer was performed using the ECHO 550 (Labcyte, Sunnyvale, Calif.) into 96-well clear bottom assay plates (Greiner Bio-One) with appropriate DMSO backfill for a final DMSO concentration of 0.03%. hMSCs were plated at 20,000 cells/well in 250 μL/well Incomplete Chondrogenic Induction Medium (Lonza; DMEM, dexamethasone, ascorbate, insulin-transferrin-selenium [ITS supplement], gentamycin-amphotericin [GA-1000], sodium pyruvate, proline and L-glutamine). TGF-β3 (10 ng/mL) was used as a positive control for differentiation while negative control wells were treated with 75 nL DMSO for normalization and calculating EC50 values. Cells were incubated at 37° C. and 5% CO2 for 6 days. To image chondrogenic nodules, the cells were fixed using 4% formaldehyde (Electron Microscopy Sciences), and stained with 2 μg/mL Rhodamine B (Sigma-Aldrich) and 20 μM Nile Red (Sigma-Aldrich) [Johnson K., et. al, A Stem Cell-Based Approach to Cartilage Repair, Science, (2012). 336(6082), 717-721]. The nodules imaged (4 images per well at 4× magnification) by excitation at 531 nm and emission at 625 nm and quantified using the CellInsight CX5 (Thermo Scientific). Number of nodules in each well was normalized to the average of 3 DMSO treated wells on the same plate using Excel (Microsoft Inc.). The normalized averages (fold change over DMSO) of 3 replicate wells for each compound concentration were calculated. Due to solubility limitations of some of the compounds, curve fitting was incomplete leading to inaccurate EC50 determinations.
Using TGF-β3 as a positive control, the concentration of representative compounds required to induce 50% levels of chondrogenesis is reported. In addition, the maximum activity of each compound and the respective dose that each compound reached maximum chondrogenesis activity is reported.

The inhibition is the relative decrease from the control value, in per cent. `c1ncc(-c2ccc3[nH]nc(-c4cc5c(N6CCCCC6)ccnc5[nH]4)c3n2)cn1` [Compound 195, 3-(4-(Piperidin-1-yl)-1H-pyrrolo[2,3-b]pyridin-2-yl)-5-(pyrimidin-5-yl)-1H-pyrazolo[4,3-b]pyridine]: in the assay on IL-6 (THP-1 cells), the EC50 is > 10000 nM and the inhibition at 10 µM turned out to be 26%. Moreover, in assay [1], the EC50 is 10 nM and the Emax was found to be 100%.

Regarding `CC(C)CC(=O)Nc1cncc(-c2ccc3[nH]nc(-c4cc5c(N6CCN(C)CC6)ccnc5[nH]4)c3n2)c1` [Compound 226, 3-Methyl-N-(5-(3-(4-(4-methylpiperazin-1-yl)-1H-pyrrolo[2,3-b]pyridin-2-yl)-1H-pyrazolo[4,3-b]pyridin-5-yl)pyridin-3-yl)butanamide], the EC50 in the assay with IL-6 (THP-1 cells) worked out at 3270 nM. Further, the Emax in assay [1] worked out at 49%.

In the assay on IL-6 (THP-1 cells), `CN1CCN(c2ccnc3[nH]c(-c4n[nH]c5ccc(-c6cncc(NC(=O)C(C)(C)C)c6)nc45)cc23)CC1` [Compound 232, N-(5-(3-(4-(4-Methylpiperazin-1-yl)-1H-pyrrolo[2,3-b]pyridin-2-yl)-1H-pyrazolo[4,3-b]pyridin-5-yl)pyridin-3-yl)pivalamide] gave an EC50 of 3430 nM. In addition, the Emax in assay [1] was determined as 24%.

Take `CN1CCN(c2ccnc3[nH]c(-c4n[nH]c5ccc(-c6cncc(NC(=O)c7ccccc7)c6)nc45)cc23)CC1` [Compound 235, N-(5-(3-(4-(4-Methylpiperazin-1-yl)-1H-pyrrolo[2,3-b]pyridin-2-yl)-1H-pyrazolo[4,3-b]pyridin-5-yl)pyridin-3-yl)benzamide]: in the assay on IL-6 (THP-1 cells), the EC50 is > 10000 nM and the inhibition at 10 µM is 48.1%. Moreover, in assay [1], the EC50 is 10 nM and the Emax turned out to be 62%.

Take `CN1CCN(c2ccnc3[nH]c(-c4n[nH]c5ccc(-c6cncc(NC(=O)CC(C)(C)C)c6)nc45)cc23)CC1` [Compound 240, 3,3-Dimethyl-N-(5-(3-(4-(4-methylpiperazin-1-yl)-1H-pyrrolo[2,3-b]pyridin-2-yl)-1H-pyrazolo[4,3-b]pyridin-5-yl)pyridin-3-yl)butanamide]: in the assay on IL-6 (THP-1 cells), the EC50 was > 10000 nM and the inhibition at 10 µM stood at 43.5%. In assay [1], the Emax amounted to 30%.

With `c1cncc(-c2ccc3[nH]nc(-c4cc5cccnc5[nH]4)c3n2)c1` [Compound 256, 5-(Pyridin-3-yl)-3-(1H-pyrrolo[2,3-b]pyridin-2-yl)-1H-pyrazolo[4,3-b]pyridine], in the assay on IL-6 (THP-1 cells), the EC50 came out at 2 nM. In assay [1], the EC50 turned out to be 10 nM and the Emax stood at 66%.

In the case of `CCNCc1cncc(-c2ccc3[nH]nc(-c4cc5cccnc5[nH]4)c3n2)c1` [Compound 258, N-((5-(3-(1H-Pyrrolo[2,3-b]pyridin-2-yl)-1H-pyrazolo[4,3-b]pyridin-5-yl)pyridin-3-yl)methyl)ethanamine], in the assay with IL-6 (THP-1 cells), the EC50 is > 10000 nM and the inhibition at 10 µM stood at 4.6%. Further, in assay [1], the EC50 amounted to 10 nM and the Emax amounted to 80%.

The molecule `CN(C)Cc1cncc(-c2ccc3[nH]nc(-c4cc5cccnc5[nH]4)c3n2)c1` [Compound 265, 1-(5-(3-(1H-Pyrrolo[2,3-b]pyridin-2-yl)-1H-pyrazolo[4,3-b]pyridin-5-yl)pyridin-3-yl)-N,N-dimethylmethanamine] displayed an EC50 in the assay with IL-6 (THP-1 cells) of 653 nM. Besides, in assay [1], the Emax was 37%.

Take `FC1(F)CCN(Cc2cncc(-c3ccc4[nH]nc(-c5cc6cccnc6[nH]5)c4n3)c2)C1` [Compound 278, 5-(5-((3,3-Difluoropyrrolidin-1-yl)methyl)pyridin-3-yl)-3-(1H-pyrrolo[2,3-b]pyridin-2-yl)-1H-pyrazolo[4,3-b]pyridine]: in the assay with IL-6 (THP-1 cells), the EC50 was 107 nM. In addition, in assay [1], the EC50 came to 100 nM and the Emax stood at 134%.

Turning to `c1cnc2[nH]c(-c3n[nH]c4ccc(-c5cncnc5)nc34)cc2c1` [Compound 279, 5-(Pyrimidin-5-yl)-3-(1H-pyrrolo[2,3-b]pyridin-2-yl)-1H-pyrazolo[4,3-b]pyridine], the EC50 in the assay on IL-6 (THP-1 cells) worked out at 3 nM. Also, the Emax in assay [1] is 43%.

Regarding `CN(C)CCNc1cc(F)cc(-c2ccnc3[nH]c(-c4n[nH]c5ccc(-c6ccncc6)nc45)cc23)c1` [Compound 466, N^1-(3-Fluoro-5-(2-(5-(pyridin-4-yl)-1H-pyrazolo[4,3-b]pyridin-3-yl)-1H-pyrrolo[2,3-b]pyridin-4-yl)phenyl)-N^2,N^2-dimethylethane-1,2-diamine], in the assay with IL-6 (THP-1 cells), the EC50 is > 10000 nM and the inhibition at 10 µM is 31%. Further, the Emax in assay [1] stood at 17%.

For the molecule `CN(C)CCNc1cc(F)cc(-c2ccnc3[nH]c(-c4n[nH]c5ccc(-c6cncc(CNCC7CCCC7)c6)nc45)cc23)c1` [Compound 473, N^1-(3-(2-(5-(5-(((Cyclopentylmethyl)amino)methyl)pyridin-3-yl)-1H-pyrazolo[4,3-b]pyridin-3-yl)-1H-pyrrolo[2,3-b]pyridin-4-yl)-5-fluorophenyl)-N^2,N^2-dimethylethane-1,2-diamine], the EC50 with IL-6 (THP-1 cells) came out at 6750 nM; in assay [1], 900 nM. For the same molecule, the Emax in assay [1] came out at 111%.

`CN(C)CCOc1cncc(-c2ccc3[nH]nc(-c4cc5c(-c6cccnc6)ccnc5[nH]4)c3n2)c1` [Compound 563, N,N-Dimethyl-2-((5-(3-(4-(pyridin-3-yl)-1H-pyrrolo[2,3-b]pyridin-2-yl)-1H-pyrazolo[4,3-b]pyridin-5-yl)pyridin-3-yl)oxy)ethan-1-amine]: in the assay on IL-6 (THP-1 cells), the EC50 was > 10000 nM and the inhibition at 10 µM turned out to be 20.3%. Further, the Emax in assay [1] was determined as 22%.

For the molecule `c1cc(-c2ccnc3[nH]c(-c4n[nH]c5ccc(-c6cncc(OCCN7CCCC7)c6)nc45)cc23)ccn1` [Compound 578, 3-(4-(Pyridin-4-yl)-1H-pyrrolo[2,3-b]pyridin-2-yl)-5-(5-(2-(pyrrolidin-1-yl)ethoxy)pyridin-3-yl)-1H-pyrazolo[4,3-b]pyridine], in the assay on IL-6 (THP-1 cells), the EC50 was > 10000 nM and the inhibition at 10 µM worked out at 27%. Besides, the Emax in assay [1] came to 40%.

For `CN1CCN(c2ccnc3[nH]c(-c4n[nH]c5ccc(-c6cn[nH]c6)nc45)cc23)CC1` [Compound 635, 3-(4-(4-Methylpiperazin-1-yl)-1H-pyrrolo[2,3-b]pyridin-2-yl)-5-(1H-pyrazol-4-yl)-1H-pyrazolo[4,3-b]pyridine], in the assay on IL-6 (THP-1 cells), the EC50 is > 10000 nM and the inhibition at 10 µM was 8.4%. For the same molecule, in assay [1], the EC50 was found to be 300 nM and the Emax stood at 60%.

Regarding `O=C(CC1CCNCC1)Nc1cncc(-c2ccc3[nH]nc(-c4cc5c(-c6ccoc6)ccnc5[nH]4)c3n2)c1` [Compound 689, N-(5-(3-(4-(Furan-3-yl)-1H-pyrrolo[2,3-b]pyridin-2-yl)-1H-pyrazolo[4,3-b]pyridin-5-yl)pyridin-3-yl)-2-(piperidin-4-yl)acetamide], the EC50 with IL-6 (THP-1 cells) was 3340 nM; in assay [1] it was 10 nM. In assay [1], the Emax came out at 102%.

In the assay with IL-6 (THP-1 cells), `c1csc(-c2ccnc3[nH]c(-c4n[nH]c5ccc(-c6cncc(OC7CCNCC7)c6)nc45)cc23)c1` [Compound 704, 5-(5-(Piperidin-4-yloxy)pyridin-3-yl)-3-(4-(thiophen-2-yl)-1H-pyrrolo[2,3-b]pyridin-2-yl)-1H-pyrazolo[4,3-b]pyridine] displayed an EC50 of 106 nM. In addition, in assay [1], the EC50 was found to be 300 nM and the Emax amounted to 51%.

The values are drawn from patent US10206909B2, “3-(1H-pyrrolo[2,3-B]pyridin-2-yl)-1H-pyrazolo[4,3-B]pyridines and therapeutic uses thereof” (Samumed, LLC, priority 2015, dated 2019).
